# According to publication PMC8160210, “Single tryptophan Y160W mutant of homooligomeric E. coli purine nucleoside phosphorylase implies that dimers forming the hexamer are functionally not equivalent” (Scientific Reports, 2021):
# Like-named read-outs stand apart in the source and are kept apart here.
# Target: T1, WT E. coli PNP (Escherichia coli, UniProt P0ABP8)
# T1 construct: made in house
# T1 sequence (P0ABP8 2-239 limits assumed): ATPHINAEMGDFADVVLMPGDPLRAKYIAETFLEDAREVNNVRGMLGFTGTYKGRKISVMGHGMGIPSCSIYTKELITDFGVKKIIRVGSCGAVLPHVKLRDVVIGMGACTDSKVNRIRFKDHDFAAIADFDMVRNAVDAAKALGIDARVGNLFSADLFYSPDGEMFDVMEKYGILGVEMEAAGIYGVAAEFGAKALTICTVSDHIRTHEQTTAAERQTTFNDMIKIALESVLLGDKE
# Experiment: Fluorescence titrations with phosphate
# Details: three-binding-site model, 25 °C
# Protocol: All experiments were carried out on the Perkin-Elmer LS55 spectrofluorimeter. Fluorescence spectra were registered using in each case (protein or protein–ligand complex) several excitation wavelengths. Differential spectra were calculated by subtracting spectrum of a protein from the spectrum of the appropriate complex. The negative differential fluorescence intensity means that a decrease of fluorescence upon complex formation is observed. Titrations of the enzyme with phosphate were registered using several excitation and observation wavelengths combinations. When selecting specific wavelengths for such a combination, two criteria were used: (1) the overall change in the fluorescence signal and (2) the complexity of the shape of the titration as the analysis of the multi-phasic curves is more explicit than a uni-phasic curve analysis.
# Path length for the excitation was 2 mm and for the emission was 5 mm (half of the cuvette dimensions). A continuous stirring was used during titrations. All measurements were performed at 25 °C. […]
# Fluorescence intensity of the WT protein is stable over time, but in the case of the Y160W mutant a slight quenching of fluorescence is observed during titration, which typically lasted about 30 min as the time between each point in the titration was 1 min. Furthermore, adding phosphate during titration stabilises the intrinsic fluorescence of the protein. […] Thus corrected binding curves, F^cor([Pi]), are given by the following equation, in which Fn([Pi]) is the fluorescence intensity measured for the phosphate concentration [Pi], and n is the number of a given titration point in the particular titration:4 FncorPi=FnPi+∑m=1naPim
# To check its influence on the intrinsic protein fluorescence, titrations with NaCl were performed, giving dependence F(I). […] Titration curves of the WT protein with phosphate were therefore measured up to 100 mM ionic strength of solution, which is enough to observe a plateau. […] Both F^obs([Pi]) and F(I) were corrected for the time dependent fluorescence quenching, according to Eq. (4), prior to the F^bind([Pi]) calculation. […]
smiles,measurement,setting,value
"O=P(O)(O)O [Pi, Orthophosphate]",Kd,"50 mM Tris/HCl pH 7.6, read-out: Kd1 ± SD",4.4 µM
same,Kd,"50 mM Tris/HCl pH 7.6, read-out: Kd2 ± SD",84 µM
same,Kd,"50 mM Tris/HCl pH 7.6, read-out: Kd3 ± SD",1770 µM
